# Data published in PubChem BioAssay (NCI).
#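 Cells were grown in 96-well plates and exposed to each compound for 48 hours at five concentrations; endpoints were interpolated linearly between bracketing concentrations, or set to the highest concentration if not reached. GI50: concentration for 50% inhibition of growth. The concentration for full growth arrest is given as TGI.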
# Tests used:
# Assay in all cases: NCI anticancer screen, dose series, 48 h
# 786-0 renal = system: 786-0 renal
# A498 renal = system: A498 renal
# A549 NSCLC = system: A549 NSCLC
# ACHN renal = system: ACHN renal
# BT-549 breast = system: BT-549 breast
# CAKI-1 renal = system: CAKI-1 renal
# CCRF-CEM leukemia = system: CCRF-CEM leukemia
# COLO 205 colon = system: COLO 205 colon
# DU-145 prostate = system: DU-145 prostate
# HCC-2998 colon = system: HCC-2998 colon
# HCT-116 colon = system: HCT-116 colon
# HCT-15 colon = system: HCT-15 colon
# HL-60(TB) leukemia = system: HL-60(TB) leukemia
# HOP-62 NSCLC = system: HOP-62 NSCLC
# HOP-92 NSCLC = system: HOP-92 NSCLC
# HS 578T breast = system: HS 578T breast
# HT29 colon = system: HT29 colon
# IGROV1 ovarian = system: IGROV1 ovarian
# K-562 leukemia = system: K-562 leukemia
# KM12 colon = system: KM12 colon
# LOX IMVI melanoma = system: LOX IMVI melanoma
# M14 melanoma = system: M14 melanoma
# MALME-3M melanoma = system: MALME-3M melanoma
# MCF7 breast = system: MCF7 breast
# MDA-MB-231 breast = system: MDA-MB-231 breast
# MDA-MB-435 = system: MDA-MB-435
# MOLT-4 leukemia = system: MOLT-4 leukemia
# NCI-H226 lung = system: NCI-H226 lung
smiles,measurement,setting,value
CC(C)C[C@H](NC(=O)CCn1ccc2ccccc2c1=O)B(O)O,GI50,786-0 renal,4.76 µM
same,TGI,786-0 renal,> 100 µM
same,GI50,A498 renal,1.22 µM
same,TGI,A498 renal,4.79 µM
same,GI50,A549 NSCLC,8.41 µM
same,TGI,A549 NSCLC,> 100 µM
same,GI50,ACHN renal,1.75 µM
same,TGI,ACHN renal,> 100 µM
same,GI50,BT-549 breast,2.21 µM
same,TGI,BT-549 breast,17.1 µM
same,GI50,CAKI-1 renal,2.93 µM
same,TGI,CAKI-1 renal,27 µM
same,GI50,CCRF-CEM leukemia,2.02 µM
same,TGI,CCRF-CEM leukemia,25.4 µM
same,GI50,COLO 205 colon,5.06 µM
same,TGI,COLO 205 colon,> 100 µM
same,GI50,DU-145 prostate,9.13 µM
same,TGI,DU-145 prostate,> 100 µM
same,GI50,HCC-2998 colon,6.08 µM
same,TGI,HCC-2998 colon,21.3 µM
same,GI50,HCT-116 colon,1.55 µM
same,TGI,HCT-116 colon,19.8 µM
same,GI50,HCT-15 colon,9.57 µM
same,TGI,HCT-15 colon,> 100 µM
same,GI50,HL-60(TB) leukemia,2.69 µM
same,TGI,HL-60(TB) leukemia,49.5 µM
same,GI50,HOP-62 NSCLC,4.51 µM
same,TGI,HOP-62 NSCLC,22.1 µM
same,GI50,HOP-92 NSCLC,10.9 µM
same,TGI,HOP-92 NSCLC,67.1 µM
same,GI50,HS 578T breast,3.63 µM
same,TGI,HS 578T breast,48.7 µM
same,GI50,HT29 colon,3.68 µM
same,TGI,HT29 colon,48.7 µM
same,GI50,IGROV1 ovarian,12.3 µM
same,TGI,IGROV1 ovarian,> 100 µM
same,GI50,K-562 leukemia,4.97 µM
same,TGI,K-562 leukemia,> 100 µM
same,GI50,KM12 colon,7.51 µM
same,TGI,KM12 colon,29.8 µM
same,GI50,LOX IMVI melanoma,2.11 µM
same,TGI,LOX IMVI melanoma,6.78 µM
same,GI50,M14 melanoma,4.23 µM
same,TGI,M14 melanoma,> 100 µM
same,GI50,MALME-3M melanoma,2.58 µM
same,TGI,MALME-3M melanoma,9.89 µM
same,GI50,MCF7 breast,4.35 µM
same,TGI,MCF7 breast,> 100 µM
same,GI50,MDA-MB-231 breast,9.45 µM
same,TGI,MDA-MB-231 breast,59.3 µM
same,GI50,MDA-MB-435,1.27 µM
same,TGI,MDA-MB-435,2.81 µM
same,GI50,MOLT-4 leukemia,1.28 µM
same,TGI,MOLT-4 leukemia,5.94 µM
same,GI50,NCI-H226 lung,1.47 µM
same,TGI,NCI-H226 lung,3.24 µM
